System: Malassezia furfur (CBS 7982)
Test: In Vitro Antifungal Minimum Inhibitory Concentration (MIC) Testing
Assay type: cell-based
Conditions: azoxystrobin itself against Malassezia, value used in the model
Procedure: Malassezia furfur (CBS 7982) is maintained continuously as a culture at 31° C. in a 250-ml vent-capped polycarbonate Erlenmeyer flask by combining approximately 50 ml of mDixon growth medium and 2.5 ml of previously grown Malassezia culture. For each assay, Malassezia cells from 24-hour-old culture (approximately 7.5×10^8 cells/ml) are diluted 500-fold into mDixon growth medium. Micropipettes are used to transfer 295 ul of diluted cells to each well of a Beckman 267007 polypropylene round-bottom deep-well plate. Product forms are prepared for testing as concentrated stocks in water. Micropipettes are used to transfer 5 ul of appropriately diluted product form to the diluted Malassezia cells in the round-bottom deep-well plate. A semipermeable sealing film is applied to the plate which is then covered with water-soaked cotton batting. The deep-well plates are shaken at 31° C. on a Heidolph Titramax 1000 shaker at 1350 rpm for approximately 20 hours. The samples are mixed by micropipetting before transferring 200 ul of sample culture from each well to a Corning 3596 polystyrene plate. The plates are read immediately for absorbance at 600 nm using a Molecular Devices SpectraMax M5 plate reader. MIC values are presented as ppm of active.

CO/C=C(/C(=O)OC)c1ccccc1Oc1cc(Oc2ccccc2C#N)ncn1 [Azoxystrobin]
minimal inhibitory concentration (MIC): 0.2-0.9 ppm
